Test results: PMC9503009, “Determining Ligand and Ion-Induced Conformational Changes in Serotonin Transporter with Its Fluorescent Substrates” (International Journal of Molecular Sciences, 2022)
Like-named read-outs stand apart in the source and are kept apart here.

Experiments:
Format in all cases: cell-based
[1] = target: T1, SERT Y107C/C109A (Rattus norvegicus, UniProt P31652, C109A/Y107C); assay: MTSET inhibition of APP+ uptake in live cells (extracellular pathway cysteine accessibility)
T1 construct: expressed in transfected cells
Method: (§1) Figure 3 Reactivity of the extracellular cysteine mutants with MTSET. (A) MTSET concentration-dependent inhibition of APP^+ uptake. The cells stably expressing C109A, Y107C/C109C, or S404C/C109A were incubated for 15 min with indicated concentrations of MTSET. The MTSET concentration giving half-maximal inhibition of APP^+ accumulation in the cells was used to calculate inactivation rate constants as plotted in (B). […] Representative images of APP^+ uptake by C109A, Y107C/C109A, or S404C/C109A under various MTSET concentrations were shown in Supplemental Figure S1. […] (B) Rate constants of MTSET inhibition of APP^+ uptake. At the half-maximal concentration, the half-time is the assay time (15 min) and the first-order rate constant is 7.7 × 10^−4 s^−1. This rate constant was divided by the half maximal MTSET concentration from (A) to obtain the pseudo first-order modification rate constant. Error bars represent SEM of three experiments.
(A) MTSET concentration-dependent inhibition of APP^+ uptake. […] After washing to remove excess MTSET and ligands, APP^+ uptake was measured as described under “Materials and Methods”. […] (B) Rate constants of MTSET inhibition of APP^+ uptake. The IC50 values of MTSET inhibition were used to calculate rate constants as described under “Materials and Methods”. Error bars represent SEM from three experiments.
(§2) The cells stably expressing Y107C/C109A or S404C/C109A were preincubated with indicated ligands and MTSET at a concentration of 0.01 mM for Y107C/C109A or 0.002 mM for S404C/C109A at 22 °C for 15 min, respectively. At the end of this incubation, cells were washed free of MTSET and ligands into KRH buffer containing NaCl and APP^+. APP^+ uptake was measured as described under “Materials and Methods”. Error bars represent SEM from three experiments. Asterisks and hashtags indicate statistically significant changes (p < 0.05) in the accumulated APP^+ fluorescence compared with the corresponding control (MTSET alone).
The cells stably expressing Y107C/C109A were treated at 22 °C for 15 min with indicated concentrations of MTSET in the absence or presence of 10 μM vilazodone. After washing to remove excess MTSET and vilazodone, APP^+ uptake was measured as described under “Materials and Methods”. […] The IC50 values of MTSET inhibition were used to calculate rate constants as described under “Materials and Method”. Error bars represent SEM from three experiments. […] After washing to remove excess MTSEA and vilazodone, ASP^+ binding was measured as described under “Materials and Methods”. […] The IC50 values of MTSEA inhibition of ASP^+ binding were converted to rate constants.

[2] = target: T2, SERT S404C/C109A (Rattus norvegicus, UniProt P31652, C109A/S404C); assay: as above
T2 construct: expressed in transfected cells
Method: as §1, §2
Accessibility of the cysteine residues in the extracellular pathway was measured by reactivity of Y107C/C109A and S404C/C109A mutants with MTSET. The cells stably expressing Y107C/C109A or S404C/C109A were incubated with MTSET over a range of concentrations in HEPES buffer containing indicated ligands or ions at 22 °C for 15 min. After excess MTSET and ligands were removed by rapid 3 × washing with the same buffer, the cells were then incubated with APP^+ at a final concentration of 2 μM in KRH buffer at 22 °C for another 5 min. The extent of APP^+ accumulated in the cells was determined by confocal imaging analysis in the live cells. To measure the effects of antidepressants, substrate 5-HT, or other ligands such as 5-HTP or tryptophan, where added, was present at 10 μM. To measure the effects of ions, 150 mM […] (NMDG) gluconate, and NMDG chloride, sodium isethionate, or NaCl was used as indicated. These measurements of reactivity depend on the ability of MTSET to inactivate APP^+ transport activity by an allosteric mechanism. The MTSET concentration causing half-maximal inactivation was determined and used to calculate the rate constant for cysteine modification, as described previously.

[3] = target: T3, WT-SERT (Rattus norvegicus, UniProt P31652); assay: Kinetic analysis of APP+ or ASP+ uptake by fluorescence imaging in stably expressing cells; conditions: 22 °C, 5 min, mean ± SEM of three experiments
T3 construct: expressed in transfected cells
Method: Figure 1 Kinetic analysis and ion requirements for APP^+ or ASP^+ uptake by SERT. (A) Kinetic analysis for APP^+ or ASP^+ uptake by SERT. […] After washing to remove excess APP^+ or ASP^+, the accumulated fluorescence within the cells (n ≥ 30) were counted and normalized to the cell areas, as described under “Materials and Methods”. […] (B) Ion-dependence of APP^+ or ASP^+ uptake. APP^+ or ASP^+ uptake was measured by incubating the cells stably expressing WT- SERT with APP^+ at 2 μM or ASP^+ at 10 μM in HEPES buffer containing 150 mM NMDGCl, sodium isethionate, or NaCl, respectively. Error bars represent SEM of three experiments.
The cells stably expressing SERT-WT or mutants were wet mounted on polylysine-coated glass slides and applied for indicated treatments. In brief, the cells were washed twice with 500 μL KRH buffer containing 20 mM HEPES, pH 7.4, 120 mM NaCl, 1.3 mM KCl, 2.2 mM CaCl2, 1.2 mM MgSO4, and 0.1% (w/v) glucose. APP^+ or ASP^+ accumulation was measured by adding 500 μL KRH buffer containing 2 μM APP^+ or 10 μM ASP^+ and incubating for 5 min at 22 °C. Excess APP^+ or ASP^+ was then removed by rapid washing three times with 500 μL KRH buffer. The extent of APP^+ or ASP^+ accumulated in the cells was determined with confocal imaging analysis.
Images were acquired at 22 °C using a 20 or 60 × water immersion objective with the Zeiss LSM 900 confocal microscope. APP^+ and ASP^+ were excited by an argon laser with excitation peak at 488 nm. APP^+ fluorescence was captured at 490–565 nm and ASP^+ fluorescence at 600–650 nm. Images were analyzed using National Institutes of Health ImageJ v1.53q. Fluorescence intensity in each cell was counted and normalized to the cell area (mean fluorescence). To obtain ASP^+ binding on the cell surface, intracellular ASP^+ fluorescence intensity was subtracted from total fluorescence in each cell, and the resulting ASP^+ fluorescence on the cell surface was then normalized to the cell membrane area.

[4] = target: T4, SERT S277C/X5C (Rattus norvegicus, UniProt P31652, C109A/C15A/C21A/C357I/C622A/S277C); assay: as above; conditions: for Km / Vmax: uptake by cells stably expressing S277C/X5C, 22 °C, 5 min
T4 construct: expressed in transfected cells

[5] = target: T2, SERT S404C/C109A; assay: as above; conditions: for Km / Vmax: uptake by cells stably expressing S404C/C109A, 22 °C, 5 min
[6] = target: T1, SERT Y107C/C109A; assay: as above; conditions: 22 °C, 5 min
[7] = target: T4, SERT S277C/X5C; assay: MTS reagent inhibition of ASP+ binding in digitonin-permeabilized cells (cytoplasmic pathway cysteine accessibility)
Method: After 3 × rapid washing with KRH buffer, APP^+ or ASP^+ accumulation was measured as described under “Materials and Methods”. […] These representative images were parallelly acquired from one experiment. […] After 3 × washing, ASP^+ binding to the cell membrane was measured as described under “Materials and Methods”. […] (D) The effects of MTSET on ASP^+ binding of S277C/X5C and X5C. […] After 3 × rapid washing, ASP^+ binding was measured as described under “Materials and Methods”.
After washing to remove excess MTSEA and ligands, ASP^+ binding was measured as described under “Materials and Methods”. […] The IC50 values of MTSEA inhibition of ASP^+ binding were converted to rate constants.
The cells stably expressing Y107C/C109A were treated at 22 °C for 15 min with indicated concentrations of MTSET in the absence or presence of 10 μM vilazodone. After washing to remove excess MTSET and vilazodone, APP^+ uptake was measured as described under “Materials and Methods”. […] The IC50 values of MTSET inhibition were used to calculate rate constants as described under “Materials and Method”. Error bars represent SEM from three experiments. […] After washing to remove excess MTSEA and vilazodone, ASP^+ binding was measured as described under “Materials and Methods”. […] The IC50 values of MTSEA inhibition of ASP^+ binding were converted to rate constants. […]
For cytoplasmic pathway accessibility, measurements were performed with the cells stably expressing S277C/X5C. […] The cells, then, were washed free of unreacted MTSEA and ligands, ASP^+ binding was measured by adding 500 μL KRH buffer containing 10 μM ASP^+ and incubating at 22 °C for 5 min. Excess ASP^+ was removed by 3 × rapid washing with KRH buffer and ASP^+ fluorescence retained in the cell membrane was measured by confocal imaging analysis in the permeabilized cells. […] The MTSEA IC50 value was determined and used to calculate the rate constant for S277C/X5C modification.

[8] = Y107C/C109A, MTSET 0.01 mM, ligand 10 μM, 22 °C, 15 min
[9] = S404C/C109A, MTSET 0.002 mM, ligand 10 μM, 22 °C, 15 min

Structure (SMILES): N[C@@H](Cc1c[nH]c2ccc(O)cc12)C(=O)O [5-HTP, 5-hydroxytryptophan]
- effect of ligand on reactivity with MTSET [1]: little effect on the reactivity
- effect of ligand on reactivity with MTSET [2]: little effect on the reactivity

Structure (SMILES): CN(C)c1ccc(-c2cc[n+](C)cc2)cc1 [APP^+, 4-[4-(dimethylamino)phenyl]-1-methylpyridinium]
- Km [3]: 2.63 ± 0.06 µM
- Vmax [3]: 30.5 ± 1.4 AFU
- Km [4]: 1.99 ± 0.05 µM
- Vmax [4]: 26.5 ± 1.1 AFU
- Km [5]: 2.07 ± 0.04 µM
- Vmax [5]: 34.9 ± 1.2 AFU
- Km [6]: 2.39 ± 0.04 µM
- Vmax [6]: 39.4 ± 1.8 AFU

Structure (SMILES): N[C@@H](Cc1c[nH]c2ccccc12)C(=O)O [Trp, tryptophan]
- effect of ligand on reactivity with MTSET [1]: little effect on the reactivity
- effect of ligand on reactivity with MTSET [2]: little effect on the reactivity

Structure (SMILES): NCCc1c[nH]c2ccc(O)cc12 [5-HT, 5-hydroxytrypatamine]
- decrease of MTSET rate constant compared with control ([1]; Y107C/C109A, 10 μM ligand with Na+ and Cl−, control MTSET alone): ~2 folds
- effect of ligand on reactivity with MTSET [1, 8]: significantly decreased the reactivity
- increase of rate constant of MTSEA modification compared with control ([7]; S277C/X5C, 10 μM ligand in the presence of NaCl, 25 μg/mL digitonin): ~ 2 folds
- effect of ligand on reactivity with MTSET [2, 9]: significantly decreased the reactivity

Structure (SMILES): N#Cc1ccc2[nH]cc(CCCCN3CCN(c4ccc5oc(C(N)=O)cc5c4)CC3)c2c1 [vilazodone]
- effect on Cys107 reactivity with MTSET ([1]; intact cells expressing Y107C/C109A, 10 μM vilazodone): increased Cys107 reactivity
- effect on Cys277 reactivity with MTSEA ([7]; digitonin-permeabilized cells expressing S277C/X5C, 10 μM vilazodone): decreased Cys277 reactivity

Structure (SMILES): CN(C)CCCN1c2ccccc2CCc2ccccc21 [imipramine]
- effect of ligand on reactivity with MTSET [1, 8]: markedly increased the reactivity
- effect of ligand on reactivity with MTSET [2, 9]: markedly increased the reactivity

Structure (SMILES): CN(C)c1ccc(C=Cc2cc[n+](C)cc2)cc1 [ASP^+, 4-(4-(dimethylamino)styryl)-N-methylpyridinium]
- Km [3]: 8.52 ± 0.15 µM
- Vmax [3]: 75.8 ± 5.3 AFU
- Vmax value relative to the WT ([4]; S277C/X5C, ASP+ as substrate): ~50%
- Km [4]: 9.66 ± 0.94 µM
- Vmax [4]: 40.2 ± 3.0 AFU
- Vmax value relative to the WT ([5]; S404C/C109A, ASP+ as substrate): ~70%
- Km [5]: 8.87 ± 0.59 µM
- Vmax [5]: 53.2 ± 3.8 AFU
- Km [6]: 9.32 ± 0.48 µM
- Vmax [6]: 59.9 ± 4.2 AFU
